Laboratory results as given in article PMC4420247, “8-Triazolylpurines: Towards Fluorescent Inhibitors of the MDM2/p53 Interaction” (PLoS ONE, 2015).

What was measured:
[1] = molecular target: T1, MDM2 (Homo sapiens, UniProt Q00987); test: FP displacement of Texas Red-labelled p53 peptide from MDM2; format: binding
[2] = molecular target: T1, MDM2; test: FP displacement of Texas Red-labelled p53 peptide from MDM2; binding confirmed by WaterLOGSY NMR

T1 sequence (Q00987 whole entry): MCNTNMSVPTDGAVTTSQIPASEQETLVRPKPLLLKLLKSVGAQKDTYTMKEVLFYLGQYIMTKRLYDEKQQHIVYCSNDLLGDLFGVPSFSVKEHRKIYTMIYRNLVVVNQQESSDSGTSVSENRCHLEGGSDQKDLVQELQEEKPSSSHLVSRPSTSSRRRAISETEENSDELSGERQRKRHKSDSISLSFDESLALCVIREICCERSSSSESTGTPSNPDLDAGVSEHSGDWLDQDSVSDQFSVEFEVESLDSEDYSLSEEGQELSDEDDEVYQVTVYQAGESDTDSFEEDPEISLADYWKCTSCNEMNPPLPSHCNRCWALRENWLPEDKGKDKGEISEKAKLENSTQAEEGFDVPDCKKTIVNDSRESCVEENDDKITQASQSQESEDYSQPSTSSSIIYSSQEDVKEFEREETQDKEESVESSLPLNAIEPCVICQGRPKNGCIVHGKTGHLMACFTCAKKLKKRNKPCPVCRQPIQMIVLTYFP

Row | SMILES | IC50 [1] | IC50 [2]
1 | CCCNc1nc(N)c2nc(-c3cn(C)nn3)n(C3Cc4ccccc4C3)c2n1 [14j] | 56 µM | 
2 | CCCNc1nc(NCC(=O)OCC)c2nc(-c3cn(C)nn3)n(C3Cc4ccccc4C3)c2n1 [14f, 6-(Ethoxy-carbonyl-methylamino)-9-(2-indanyl)-8-(1-methyl-1H-1,2,3-triazol-4-yl)-2-(1-propylamino)purine] |  | 10 µM
